Experimental data from ChEMBL document CHEMBL1201862, “PubChem BioAssay data set” (2004).
Calls of active or inactive are those of the source.

Legend:
INS1 = assay: beta cell apoptosis inhibitors, cytokine rescue, dose response, luminescence, retest (AID 449756); assay type: functional, cell-based; conditions: Rattus norvegicus;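 also: cell death triggered by IL-1 beta plus TNF-alpha plus IFN-gamma mixture; protective hits raise ATP signal compared with cytokine alone wells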
[1] = HepG2 cell cytotoxicity, dose response, cytotoxicity control for Shn3 inhibitor project, CellTiter-Glo, cherry-picked (AID 624134); assay type: functional, cell-based
[2] = control 3'UTR Renilla luciferase suppression, dose response, counter-screen for Shn3 inhibitor project, cell-based, Clone20-Shn3RL, cherry-picked (AID 624133); assay type: functional
[3] = Shn3 3'UTR reporter inhibitors, dose response, cell-based, Clone20 osteoblasts, firefly luciferase, cherry-picked (AID 624132); assay type: functional;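 also: firefly luciferase luminescence from reporter carrying the Shn3 3'UTR in osteoblasts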
[4] = target: Induced myeloid leukemia cell differentiation protein Mcl-1 (Homo sapiens, UniProt Q07820); assay type: functional
H9c2 = assay: cells; assay type: functional, cell-based; conditions: Rattus norvegicus, H9c2, Myocardium;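 also: confirmatory concentration-response retest of ultra-high-throughput screening hits for modulation of myocardial damage; cell death induced by hydrogen peroxide oxidative stress; compound pretreatment for 60 min then peroxide exposure for 2 h; potency is for protecting the cells against peroxide damage rather than for killing them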
[5] = target: T1, Corticotropin-releasing factor receptor 2/Corticotropin-releasing factor-binding protein (Homo sapiens, UniProt P24387+Q13324); assay: activators of CRF receptor 2 with binding protein – uHTS hits, confirmation (AID 602473); assay type: functional; conditions: read-out: EC50_Mean
T1 sequence (Q13324 whole entry): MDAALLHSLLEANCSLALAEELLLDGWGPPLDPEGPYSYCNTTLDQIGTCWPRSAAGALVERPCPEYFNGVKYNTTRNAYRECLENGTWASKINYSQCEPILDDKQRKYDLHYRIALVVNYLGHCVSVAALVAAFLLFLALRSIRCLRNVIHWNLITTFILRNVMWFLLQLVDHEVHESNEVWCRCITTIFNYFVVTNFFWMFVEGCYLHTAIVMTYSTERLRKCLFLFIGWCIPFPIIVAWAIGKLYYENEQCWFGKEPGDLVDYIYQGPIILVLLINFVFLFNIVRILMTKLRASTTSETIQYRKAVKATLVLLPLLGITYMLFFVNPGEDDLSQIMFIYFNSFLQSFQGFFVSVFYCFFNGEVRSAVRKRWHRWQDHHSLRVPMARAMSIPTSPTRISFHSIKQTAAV
T1 sequence (P24387 whole entry): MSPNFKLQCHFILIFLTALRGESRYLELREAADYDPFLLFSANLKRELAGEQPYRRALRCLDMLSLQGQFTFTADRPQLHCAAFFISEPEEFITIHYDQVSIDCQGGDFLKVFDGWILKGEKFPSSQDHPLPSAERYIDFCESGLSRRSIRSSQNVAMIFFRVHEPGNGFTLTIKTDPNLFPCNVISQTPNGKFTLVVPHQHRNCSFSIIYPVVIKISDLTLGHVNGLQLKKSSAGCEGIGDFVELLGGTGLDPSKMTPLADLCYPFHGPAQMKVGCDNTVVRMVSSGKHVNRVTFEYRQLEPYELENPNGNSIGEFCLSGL

[6] = target: T1, Corticotropin-releasing factor receptor 2/Corticotropin-releasing factor-binding protein; assay: Dose Response confirmation of uHTS hits for small molecule antagonists of the CRF-binding protein and CRF-R2 receptor complex.; assay type: functional; conditions: read-out: IC50_Mean
[7] = inhibitors of intracellular T. cruzi replication, confirmation, NIH3T3 host cells, beta-gal luminescence (AID 2044); assay type: functional, cell-based;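 also: intracellular parasites grown in NIH/3T3 mouse fibroblasts as host cells; luminescent beta-galactosidase reporter signal from transgenic T. cruzi replicating inside host cells; inhibitors lower the luminescence signal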
[8] = cytotoxicity toward NIH3T3 fibroblasts, dose response, counter-screen, cell-based, ATP luminescence, mouse fibroblasts (AID 2010); assay type: functional;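 also: cells exposed to compound for about 90 hours before reading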
cells = assay type: functional
Cytochrome P450 2C19 = Cytochrome P450 2C19 (Homo sapiens, UniProt P33261); assay: Cytochrome panel assay with activity outcomes. Panel member name: p450-cyp2c19 Compounds with AC50 equal or less than 10 uM are considered active; assay type: functional
Cytochrome P450 2D6 = Cytochrome P450 2D6 (Homo sapiens, UniProt P10635);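 also: CYP2D6 member of a cytochrome P450 panel assay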
Cytochrome P450 3A4 = Cytochrome P450 3A4 (Homo sapiens, UniProt P08684);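 also: CYP3A4 tested as one member of a cytochrome P450 panel screen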
Cytochrome P450 1A2 = target: T2, Cytochrome P450 1A2 (Homo sapiens, UniProt P05177);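 also: PubChem cytochrome P450 panel assay, CYP1A2 panel member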
T2 sequence (P05177 whole entry): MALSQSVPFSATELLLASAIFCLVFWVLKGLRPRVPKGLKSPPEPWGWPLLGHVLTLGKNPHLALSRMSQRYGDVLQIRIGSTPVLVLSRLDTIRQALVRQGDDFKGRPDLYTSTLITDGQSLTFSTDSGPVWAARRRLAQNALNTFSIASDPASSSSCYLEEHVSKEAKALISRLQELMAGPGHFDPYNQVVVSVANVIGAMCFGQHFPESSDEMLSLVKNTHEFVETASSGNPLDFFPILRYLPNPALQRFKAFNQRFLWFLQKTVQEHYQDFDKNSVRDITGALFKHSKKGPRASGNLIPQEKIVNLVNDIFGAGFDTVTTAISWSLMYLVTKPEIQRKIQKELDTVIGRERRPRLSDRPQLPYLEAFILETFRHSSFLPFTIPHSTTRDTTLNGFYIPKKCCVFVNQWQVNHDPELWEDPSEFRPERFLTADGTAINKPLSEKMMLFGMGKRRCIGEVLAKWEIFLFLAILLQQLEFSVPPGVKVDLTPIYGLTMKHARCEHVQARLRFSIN

BJ [9] = assay: cells; assay type: functional, cell-based, Homo sapiens; conditions: Homo sapiens, BJ
BJ [10] = assay: cytotoxicity toward BJ-TERT fibroblasts, dose response, cell-based, RAS-independent, luminescence (AID 1933); assay type: functional, Homo sapiens; conditions: Homo sapiens, BJ
BJ [11] = assay: cytotoxicity toward BJ-TERT-LT-ST fibroblasts, dose response, cell-based, RAS-independent, luminescence (AID 1935); assay type: functional, Homo sapiens; conditions: Homo sapiens, BJ;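 also: BJ fibroblasts immortalized with TERT plus LT and ST oncogenes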
[12] = cytotoxicity toward DRD oncogenic fibroblasts, dose response, cell-based, non-viral oncogenic, luminescence (AID 1934); assay type: functional; conditions: Homo sapiens
Protein skinhead-1 = target: T3, Protein skinhead-1 (Caenorhabditis elegans, UniProt P34707); assay type: functional
T3 sequence (P34707 whole entry): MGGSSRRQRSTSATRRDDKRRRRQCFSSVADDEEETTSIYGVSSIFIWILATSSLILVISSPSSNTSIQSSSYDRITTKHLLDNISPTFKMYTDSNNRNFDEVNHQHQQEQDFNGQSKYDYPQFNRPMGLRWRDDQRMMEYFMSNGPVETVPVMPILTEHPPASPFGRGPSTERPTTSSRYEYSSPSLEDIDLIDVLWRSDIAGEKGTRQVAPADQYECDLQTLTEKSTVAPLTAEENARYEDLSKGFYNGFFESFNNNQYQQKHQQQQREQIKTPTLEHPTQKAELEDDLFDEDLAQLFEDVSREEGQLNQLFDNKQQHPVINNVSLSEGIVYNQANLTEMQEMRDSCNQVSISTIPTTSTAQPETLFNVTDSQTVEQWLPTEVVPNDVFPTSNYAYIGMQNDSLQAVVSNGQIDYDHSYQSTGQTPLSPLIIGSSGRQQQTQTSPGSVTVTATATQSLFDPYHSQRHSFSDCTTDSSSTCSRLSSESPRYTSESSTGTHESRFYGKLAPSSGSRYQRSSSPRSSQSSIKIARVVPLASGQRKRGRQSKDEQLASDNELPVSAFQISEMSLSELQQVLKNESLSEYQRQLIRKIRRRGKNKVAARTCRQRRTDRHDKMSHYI

[13] = growth suppression of PTEN-null colon cells, dose response, cell-based, HCT116 PTEN knockout (AID 1047); assay type: functional;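 also: HCT116 colon tumor cells with PTEN knocked out; cells exposed to compound for 60 hours before readout; potency for loss of cell viability measured by luminescence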
[14] = P. falciparum Dd2 growth inhibitors, dose response, SYBR Green, cherry-picked samples (AID 1159567); assay type: functional, cell-based

Induced myeloid leukemia cell differentiation protein Mcl-1, sequence (Q07820 whole entry): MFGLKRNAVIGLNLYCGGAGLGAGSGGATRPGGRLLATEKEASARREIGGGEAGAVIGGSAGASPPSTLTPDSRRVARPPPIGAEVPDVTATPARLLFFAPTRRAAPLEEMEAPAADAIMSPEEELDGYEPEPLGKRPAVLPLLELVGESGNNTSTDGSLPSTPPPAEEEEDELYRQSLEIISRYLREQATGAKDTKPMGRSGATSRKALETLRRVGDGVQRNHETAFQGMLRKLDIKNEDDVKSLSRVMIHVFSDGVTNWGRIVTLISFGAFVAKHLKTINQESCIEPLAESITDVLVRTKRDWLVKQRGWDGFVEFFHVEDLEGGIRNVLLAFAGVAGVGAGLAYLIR
Cytochrome P450 2D6, sequence (P10635 whole entry): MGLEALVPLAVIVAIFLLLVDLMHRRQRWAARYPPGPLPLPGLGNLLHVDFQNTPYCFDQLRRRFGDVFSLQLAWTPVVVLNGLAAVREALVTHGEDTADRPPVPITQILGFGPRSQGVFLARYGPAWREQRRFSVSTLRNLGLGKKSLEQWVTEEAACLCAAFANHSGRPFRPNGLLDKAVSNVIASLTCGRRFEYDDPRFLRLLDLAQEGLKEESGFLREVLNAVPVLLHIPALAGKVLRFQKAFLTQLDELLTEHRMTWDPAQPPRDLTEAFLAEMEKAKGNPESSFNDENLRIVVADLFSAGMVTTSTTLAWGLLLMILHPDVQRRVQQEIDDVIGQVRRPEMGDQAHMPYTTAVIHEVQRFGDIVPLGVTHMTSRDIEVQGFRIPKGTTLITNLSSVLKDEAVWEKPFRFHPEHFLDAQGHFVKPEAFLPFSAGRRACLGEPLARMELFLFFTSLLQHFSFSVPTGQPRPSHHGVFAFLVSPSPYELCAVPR
Cytochrome P450 2C19, sequence (P33261 whole entry): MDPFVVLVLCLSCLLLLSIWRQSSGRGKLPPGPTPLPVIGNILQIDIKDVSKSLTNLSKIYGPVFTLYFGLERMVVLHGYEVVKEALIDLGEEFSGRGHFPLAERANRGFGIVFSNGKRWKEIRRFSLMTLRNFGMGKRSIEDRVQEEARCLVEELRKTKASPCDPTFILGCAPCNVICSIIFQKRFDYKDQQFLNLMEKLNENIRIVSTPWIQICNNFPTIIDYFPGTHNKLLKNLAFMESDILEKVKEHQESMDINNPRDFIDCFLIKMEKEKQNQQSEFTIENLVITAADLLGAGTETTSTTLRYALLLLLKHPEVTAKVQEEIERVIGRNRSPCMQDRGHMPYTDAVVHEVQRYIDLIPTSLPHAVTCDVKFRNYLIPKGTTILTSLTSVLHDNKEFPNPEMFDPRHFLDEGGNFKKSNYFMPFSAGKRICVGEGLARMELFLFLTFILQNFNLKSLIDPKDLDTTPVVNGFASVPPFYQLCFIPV
Cytochrome P450 3A4, sequence (P08684 whole entry): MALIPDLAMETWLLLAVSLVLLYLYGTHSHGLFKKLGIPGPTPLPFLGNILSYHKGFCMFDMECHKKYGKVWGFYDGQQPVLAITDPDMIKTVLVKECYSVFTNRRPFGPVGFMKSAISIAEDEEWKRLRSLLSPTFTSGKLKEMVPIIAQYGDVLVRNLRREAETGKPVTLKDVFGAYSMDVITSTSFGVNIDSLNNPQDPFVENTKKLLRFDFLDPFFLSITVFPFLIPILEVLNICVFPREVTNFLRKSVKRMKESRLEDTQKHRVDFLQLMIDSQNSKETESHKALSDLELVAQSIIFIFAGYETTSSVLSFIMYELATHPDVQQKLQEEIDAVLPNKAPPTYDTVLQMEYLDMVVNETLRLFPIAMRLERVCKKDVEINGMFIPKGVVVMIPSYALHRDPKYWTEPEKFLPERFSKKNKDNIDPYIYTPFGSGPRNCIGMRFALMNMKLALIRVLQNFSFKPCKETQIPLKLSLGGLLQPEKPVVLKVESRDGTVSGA

COCCN(C(=O)COC(=O)C1CCC(C(C)(C)C)CC1)c1c(N)n(Cc2ccccc2)c(=O)[nH]c1=O (stereo unspecified)
AC50 (INS1): 2.34 µM (active)
AC50 [1]: 43.1 µM (active)
AC50 [2]: 4.83 µM (active)
AC50 [3]: 5.15 µM (active)

CCC(=O)c1ccc(OCC(O)Cn2c(C)nc3ccccc32)cc1 (stereo unspecified)
AC50 [1]: 49.9 µM (active)
AC50 [2]: 14.1 µM (active)
AC50 [3]: 2.28 µM (active)

COc1ccc(C(=O)CSc2nnc(-c3ccco3)c(-c3ccco3)n2)cc1
IC50 [4]: 6.58 µM (active)

Cc1sc2nc(SCC(=O)N(C)C)nc(O)c2c1C
IC50 (H9c2): 22.3 µM (active)

CCN1C(=O)/C(=C\C=C\c2ccccc2[N+](=O)[O-])SC1=S
EC50 [5]: > 53 µM (inactive)
IC50 [6]: > 47.1 µM (inactive)

Cc1cc(NC(=O)c2cc([N+](=O)[O-])cc([N+](=O)[O-])c2)no1
EC50 [7]: 0.287 µM (active)
EC50 [8]: > 60 µM (not active)
IC50 (cells): 13.3 µM (active)

CCC(C)N1C(=O)S/C(=C/c2ccc3c(c2)n(C)c(=O)n3C)C1=O (stereo unspecified)
IC50 (H9c2): > 79 µM (inactive)

CN(C)c1ccc(-c2nc(NCCN3CCOCC3)c3ccccc3n2)cc1
AC50 (Cytochrome P450 2C19; read-out: AC50): 39.8 µM (inconclusive)
AC50 (Cytochrome P450 2D6): 25.1 µM (inconclusive)
AC50 (Cytochrome P450 3A4): 12.6 µM (inconclusive)

FC(F)Sc1ccc(NC2=NN=C(c3ccc4c(c3)OCCO4)CS2)cc1
AC50 (INS1): 4.4 µM (active)
AC50 (Cytochrome P450 1A2): 35.5 µM (inconclusive)
AC50 (Cytochrome P450 2D6): 14.1 µM (inconclusive)
EC50 [7]: 1.99 µM (active)
EC50 [8]: 6.72 µM (active)

O=C(Cc1cccs1)Nc1nc2c(ccc3ccccc32)s1
EC50 [5]: > 53 µM (inactive)
IC50 [6]: > 47.1 µM (inactive)

Oc1ccc(N=Nc2ccc3c(c2)OCO3)c2ccccc12
EC50 (BJ [9]): 10.9 µM (active)
EC50 (BJ [10]): 2.85 µM (active)
EC50 (BJ [11]): 6.46 µM (inconclusive)
EC50 [12]: 19.4 µM (inconclusive)

CC(C)CCN(C(=O)CNC(=O)c1ccco1)C(C(=O)NC1CCCCC1)c1ccco1 (stereo unspecified)
IC50 (H9c2): 17.4 µM (active)

O=C(Nc1nccs1)c1ccc2ccccc2c1
IC50 (Protein skinhead-1): 20.8 µM (active)
IC50 (cells): 6.75 µM (active)

Cc1ccc(C(=O)OCC(=O)c2cc(C)n(CC3CCCO3)c2C)cc1 (stereo unspecified)
EC50 [5]: > 53 µM (inactive)
IC50 [6]: > 47.1 µM (inactive)

COCCOC(=O)N/C=C\c1nc(O)c2ccccc2n1
IC50 (H9c2): > 79 µM (inactive)

CC(C)c1ccccc1-n1c(SCC(=O)N2CCc3ccccc3C2)nc2ccccc2c1=O
AC50 (INS1): 2.44 µM (active)
AC50 [1]: 55.4 µM (active)
AC50 [2]: 3.83 µM (active)
AC50 [3]: 2.99 µM (active)

Cc1cccc(NC(=O)CSc2cc(C(=O)c3nccn3C)c3ccccc3n2)c1
EC50 [13]: 453 µM (active)

COc1cc(C(=O)Nc2ccc(NC(=O)c3cccc(Cl)c3)nc2)cc(OC)c1OC
IC50 (H9c2): 8.67 µM (active)

Cc1nnc(SCC(=O)N(C)Cc2ccccc2)nc1O
EC50 [5]: > 53 µM (inactive)
IC50 [6]: > 47.1 µM (inactive)

CN(C)c1ncc(S(=O)(=O)c2ccc(Cl)cc2)c(-c2ccc(Cl)cc2Cl)n1
EC50 [5]: > 53 µM (inactive)
IC50 [6]: > 47.1 µM (inactive)

O=C(Nc1cccc(S(=O)(=O)N2CCOCC2)c1)c1c2c(nc3ccccc13)CCC2
IC50 [4]: 5.02 µM (active)

CCOC(=O)C1=C(C)N=C(C)/C(=C(/O)OCC)C1C(=O)OCC(=O)NC1CCCCC1 (stereo unspecified)
IC50 (H9c2): 7.69 µM (active)

CCCCn1c(N)c(N(CCC(C)C)C(=O)Cc2ccc(S(=O)(=O)N3CCOCC3)s2)c(=O)[nH]c1=O
EC50 [5]: > 53 µM (inactive)
IC50 [6]: > 47.1 µM (inactive)

C[C@H]1CN([C@@H](C)CO)C(=O)Cc2cc(NS(C)(=O)=O)ccc2O[C@@H]1CN(C)Cc1ccc(Cl)c(Cl)c1
EC50 [5]: 40.7 µM (active)
IC50 [6]: > 47.1 µM (inactive)

C=CCC[C@H](Cc1ccc(F)cc1)C(=O)OC[C@@H](Cc1c[nH]c2ccccc12)NC(=O)[C@@H](CC=C)CC(=O)NCCO
IC50 (H9c2): > 79 µM (inactive)

Cc1c(Cl)cccc1NC(=O)CNC(=O)Cc1nnc(O)c2ccccc12
IC50 (H9c2): > 79 µM (inactive)

COc1ccc(-c2ccc3c(c2)S(=O)(=O)c2cccc(C(=O)N4CCN(c5ccccn5)CC4)c2C3=O)cc1OC
IC50 (H9c2): 15 µM (active)

Cc1ccc(C(=O)N/C(=C\c2cn(C)c3ccccc23)C(=O)NCCCN2CCOCC2)cc1
EC50 [5]: > 53 µM (inactive)
IC50 [6]: > 47.1 µM (inactive)

CCOc1ccc(S(=O)(=O)N2CCN(C(=O)c3ccncc3)CC2)cc1
EC50 [5]: > 53 µM (inactive)
IC50 [6]: > 47.1 µM (inactive)

CC[C@@H]1CCCCc2ccccc2[C@H](C(=O)C[C@H](O)CC(C)=O)OC1=O
EC50 [5]: > 53 µM (inactive)
IC50 [6]: > 47.1 µM (inactive)

O=c1c(O)c(-c2ccccc2)oc2cc(O)ccc12
IC50 (H9c2): > 79 µM (inactive)

O=c1c2cnn(-c3ccccc3)c2nnn1/N=C/c1cccnc1
AC50 (Cytochrome P450 1A2): 3.16 µM (inconclusive)
AC50 (Cytochrome P450 2C19): inconclusive
AC50 (Cytochrome P450 2D6): 11.2 µM (inconclusive)

CN(C)c1ccc(/C=N/NC(=O)c2cccc(C(=O)N/N=C/c3ccc(N(C)C)cc3)n2)cc1
IC50 [4]: 1.15 µM (active)

C[C@@H](O)C#Cc1ccc([C@H]2[C@H]3CN(S(=O)(=O)c4ccccc4)CCCCN3[C@H]2CO)cc1
AC50 [14]: 7.37 µM (active)

C[C@H]1CN([C@@H](C)CO)S(=O)(=O)c2ccc(C#Cc3ccccc3)cc2O[C@@H]1CN(C)S(=O)(=O)c1cn(C)cn1
AC50 [14]: 3.95 µM (active)

COc1ccc2c3c([nH]c2c1)[C@@H](CO)N(Cc1cc(F)ccc1F)CC31CN(C(=O)CN(C)C)C1
AC50 [14]: 3.87 µM (active)

Cn1c(=O)n(C)c2cc(NC(=O)CCl)ccc21
EC50 (BJ [9]): 20.7 µM (inconclusive)
EC50 (BJ [10]): 18.8 µM (active)
EC50 (BJ [11]): > 75 µM (inconclusive)
EC50 [12]: 28 µM (active)

O=C(O)C[C@H](O)C[C@H](O)/C=C/c1c(C2CC2)nc2ccccc2c1-c1ccc(F)cc1 [PITAVASTATIN CALCIUM]
EC50 (BJ [9]): 4.21 µM (active)
EC50 (BJ [10]): 0.299 µM (active)
EC50 (BJ [11]): 0.559 µM (active)
EC50 [12]: 0.353 µM (active)
